Key:
Assay type in all cases: cell-based
SU-DHL-1 cells [1] = assay: CellTiter-Glo cell viability, SU-DHL-1
Description: Compound-mediated viability effect on MOLM-16 and SU-HDL-1 cells was quantitatively determined using the CellTiter-Glo® Luminescent Cell Viability Assay kit from Promega (Catalog number G7572) following manufacturer's recommended procedures.
Day 0: 60 nL of compounds/DMSO were stamped to the cell plate as on the recommended platemap. Compound precipitation was observed. Cells were centrifuged at 800 rpm for 5 min, suspended with culture medium, and counted with Countess (Invitrogen). The cell density was adjusted to the recommend concentration. 30 μL of cell solution (2000 cells/well) was added to the assay plate according to the platemap. 30 μL of media was added to column 2 and column 23 as on the platemap. The final concentration of the compounds except for the reference compound Paclitaxel was from 10 μM, 3-fold dilution and 11 dose (Paclitaxel started at 500 nM). The final DMSO concentration was 0.2%. The assay plate was incubated at 37° C., 5% CO2 for 4 days.
Day 4: The assay plate was equilibrated to RT for ˜10 minutes. Compound precipitation was observed (96h). To determine cell viability, 30 μL of CellTiter Glo reagent was added to each well and the assay plate was centrifuged at 1000 rpm for 30 second, incubated at room temperature for 10 min, and analyzed by detecting the luminescence using a multimode plate reader (EnVision 2105, PerkinElmer). The data was then analyzed by software Prism 7.0 from GraphPad and the dose response curves were fit using a three-parameter logistic equation to calculate EC50.

DEL cells = assay: CellTiter-Glo cell viability, DEL
STAT3 = STAT3 (Homo sapiens, UniProt P40763); assay: Deep tandem mass tag proteomics; conditions: Molm-16 and SU-DHL-1 cells, 8 hours, FIGS. 4 and 13
Description: Total protein was isolated from cells (e.g., Molm-16 and SU-DHL-1) and treated with degrader for 8 hours. Vehicle (DMSO)-treated cells were used as controls. Protein lysates, 2 biological replicates per condition, were prepared at 4 C in 8M urea, 75 mM NaCl, 1 mM EDTA in 50 mM Tris HCl (pH 8), 10 mM NaF, phosphatase inhibitor cocktail 2 (1:100; Sigma, P5726) and cocktail 3 (1:100; Sigma, P0044), 2 μg/mL aprotinin (Sigma, A6103), 10 μg/mL Leupeptin (Roche, 11017101001), and 1 mM PMSF (Sigma, 78830). Lysates were spun at 20,000 rcf for 10 min and supernatant (containing extracted proteins) was transferred to a clean microcentrifuge tube. Protein concentrations were determined using the Pierce BCA assay. Protein lysates were reduced with 5 mM dithiothreitol (Thermo Scientific, 20291) for 45 min at room temperature and alkylated with 10 mM iodoacetamide (Sigma, A3221) for an additional 45 min. […] Online fractionation was performed using a nanoflow Proxeon EASY-nLC 1200 UHPLC system (Thermo Fisher Scientific) and separated peptides were analyzed on a benchtop Orbitrap Q Exactive plus mass spectrometer (Thermo Fisher Scientific). All data were analyzed using Spectrum Mill software package (Agilent Technologies). […] In total, 10,992 proteins were quantified. […]

KI-JK cells = assay: CellTiter-Glo cell viability, KI-JK
SU-DHL-1 cells [2] = assay: Wash-out study in SU-DHL-1 cells; conditions: 1 uM compound for 24 and 48 hr, then wash-out; FIGS. 10 and 18
Description: I-103 and I-174 were tested in the wash-out protocol.
• Seed cell suspension in T75 flasks and treat with 0.1% DMSO and 1 uM compound for 24 and 48 hr. Day 0 • Collect cell suspension from the flasks in conical tubes after 24 and 48 hr, spin down at 1,000 rpm for 5 min. • Remove supernatant. Wash with PBS, spin down at 1,000 rpm for 5 min, repeat PBS wash one more time. • Seed the cells at 2,000 cells per well in 384-well plates for growth inhibition measurement via CellTiterGlo (CTG) and 10,000 cells per well in 96-well plates for STAT3 levels via MSD. • Measure T0 for CTG and collect pellets to measure levels of STAT3 by MSD Day 1-4 • Measure CTG every day for 4 days post wash-out. • Collect pellets and measure levels of STAT3 by MSD every day for 4 days post wash-out. Growth inhibition was normalized to T0 and graphed as % control.

[3] = 96 h, ALCL (ALK+), Day 4, read-out: CTG, IC50 μM, Day 4

Chain of STAT3 (P40763 whole entry): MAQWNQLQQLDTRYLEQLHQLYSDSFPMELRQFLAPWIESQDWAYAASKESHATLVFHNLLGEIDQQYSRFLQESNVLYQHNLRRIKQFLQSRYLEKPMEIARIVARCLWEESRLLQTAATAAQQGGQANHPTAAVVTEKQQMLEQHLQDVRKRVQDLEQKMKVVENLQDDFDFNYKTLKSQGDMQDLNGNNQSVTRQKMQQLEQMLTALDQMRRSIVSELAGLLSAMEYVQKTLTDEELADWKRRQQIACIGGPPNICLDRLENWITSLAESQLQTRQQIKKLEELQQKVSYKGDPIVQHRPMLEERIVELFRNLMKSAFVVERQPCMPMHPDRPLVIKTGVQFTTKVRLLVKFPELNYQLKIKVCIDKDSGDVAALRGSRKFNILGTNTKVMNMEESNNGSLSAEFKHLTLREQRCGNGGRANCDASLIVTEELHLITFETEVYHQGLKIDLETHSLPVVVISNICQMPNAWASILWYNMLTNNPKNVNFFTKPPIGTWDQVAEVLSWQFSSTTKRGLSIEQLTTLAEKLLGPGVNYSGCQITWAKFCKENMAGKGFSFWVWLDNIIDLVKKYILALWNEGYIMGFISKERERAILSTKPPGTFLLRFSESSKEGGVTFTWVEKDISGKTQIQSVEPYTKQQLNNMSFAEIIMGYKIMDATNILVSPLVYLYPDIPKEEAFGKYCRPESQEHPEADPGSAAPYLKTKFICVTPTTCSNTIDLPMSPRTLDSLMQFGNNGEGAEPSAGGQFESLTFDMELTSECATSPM

For `Cn1c(=O)n(C2CCC(=O)NC2=O)c2ccc(C[C@H]3CC[C@@H](CC(=O)N4CC[C@H]5CC[C@@H](C(=O)N[C@@H](CCC(N)=O)C(=O)NC(c6ccccc6)c6ccccc6)N5C(=O)[C@@H](NC(=O)c5cc6cc(C(=O)P(=O)(O)O)ccc6[nH]5)C4)CC3)cc21` (stereo partly drawn) [Compound I-174, 2-[[(5S,8S,10aR)-8-[[(1S)-3-carbamoyl-1-(diphenylmethylcarbamoyl)propyl]carbamoyl]-6-oxo-3-[2-[(1s,4s)-4-[[1-(2,6-dioxopiperidin-3-yl)-3-methyl-2-oxo-1,3-benzodiazol-5-yl]methyl]cyclohexyl]acetyl]-octahydropyrrolo[1,2-a][1,5]diazocin-5-yl]carbamoyl]-1H-indole-5-carbonylphosphonic acid], which IC50 (SU-DHL-1 cells [1]; Homo sapiens, 96 h, SU-DHL-1, ALCL (ALK+), Day 4, read-out: CTG, IC50 μM, Day 4) is on record?
The IC50 was 0.015 µM.

What about the “CTG (% Max inh), Day 4” value (SU-DHL-1 cells [1]; SU-DHL-1, ALCL (ALK+), Day 4) of the same compound?
The value was “(>95) %”.

What about the cell proliferation (SU-DHL-1 cells [1]; SU-DHL-1, FIG. 5B, FIG. 16) of the same compound?
The cell proliferation was “inhibit”.

What about the IC50 (DEL cells; [3]) of the same compound?
Its IC50 is 0.016 µM.

And the “CTG (% Max inh), Day 4” value (DEL cells; ALCL (ALK+), Day 4)?
Its value is “(95) %”.

What about the cell proliferation (DEL cells; FIG. 16) of the same compound?
The cell proliferation was “inhibit”.

What about the “selectivity of degradation for STAT3 vs >10,000 other detected proteins” value (STAT3) of the same compound?
The value was “highly selective for STAT3”.

What about the IC50 (KI-JK cells; [3]) of the same compound?
The IC50 was 0.047 µM.

And the “CTG (% Max inh), Day 4” value (KI-JK cells; ALCL (ALK+), Day 4)?
The value was “(97) %”.

And the cell proliferation (KI-JK cells; FIG. 16)?
Its cell proliferation is “inhibit”.

And the “viability of SU-DHL-1 cells after wash-out” value (SU-DHL-1 cells [2])?
Its value is “profound effects on the viability of SU-DHL-1 cells”.
